Measurements: publication PMC6274259, “New 3-Cyano-2-Substituted Pyridines Induce Apoptosis in MCF 7 Breast Cancer Cells” (Molecules, 2016)

Legend:
MCF-7 cells [1] = test: Flow cytometric cell cycle analysis (PI staining); format: cell-based, human; conditions: 2 μM, 24 h; control group 37%
Description: Flow cytometry is considered one of the specific tools for the investigation of molecular and morphological events occurring during cell death and cell proliferation. Therefore, the effect of compound 9a on cell cycle progression was studied by flow cytometry in propidium iodide (PI) stained cells. The percent of cells in G1, S, G2 phases was determined after treating cells with 2 μM of 9a for 24 h (Figure 4D). […] Thus, it can be concluded that compound 9a inhibits the proliferation of MCF-7 cells and the growth inhibition is associated with induction of G1 phase arrest. p27 is considered as an important regulator of cell cycle. To determine whether compound 9a-induced G1 arrest was associated with increased p27 level, and to study the effect on the expression of CDK2 and CDK4 involved in cell cycle progression, cells were analyzed for the expression of these proteins using western blot analysis after treatment with 2 μM of 9a for 24 h.
MCF-7 cells were seeded in 25 cm^2 flasks until reaching the desirable confluence of 1 million cells and media was changed to media containing compound 9a (2 μM). After 24 h incubation, the cells were harvested by trypsinization to detach the cells without affecting the integrity of the cell membrane. The cells were incubated with PI for 5 min at room temperature, washed twice with PBS and […]. […]

MCF-7 cells [2] = test: Western blot analysis of protein expression; format: cell-based, human
Description: Total protein was extracted from treated and untreated cells using lysis buffer (10 mM Tris-HCl (pH 7.5), 1 mM EDTA, 1% Triton X-100, 150 mM NaCl, 1 mM dithiothretol, 10% glycerol, 0.2 mM phenylmethysulphonyl fluoride and protease inhibitors) for 30–50 min on ice. The extracts were centrifuged at 13,000× g for 15 min at 4 °C to remove cell debris. Folin Lowry (Pierce, Grand Island, NY, USA) protein assay was used to figure the protein concentration in the cell lysates. Proteins were resolved by electrophoresis on 8%–10% sodium dodecyl sulphate-polycrylamide gel loading equal amount of proteins per lane. The resolved proteins were transferred onto polyvinylidene difluoride (PVDF) membrane and then probed with primary antibody against the protein of interest prepared in 5% milk/PBS-T. The membrane was washed using phosphate buffer saline with Tween 20 (PBS-T) and then appropriate secondary antibody conjugated to horseradish peroxidase (HRP) was used for visualization of the bands using ECL chemiluminescence kit (GE, Fairfield, CT, USA). Anti-p27, anti-CDK2, anti-CDK4, anti-(p21), anti-(p53), anti-Bax, anti-Akt, anti-Bcl-2, anti-MDM2, anti-cytochrome C, anti-caspase-8, anti-procaspase-8, anti-FAS, anti-VEGF, anti-MMP-9, anti-β-catenin were purchased from SantaCruz (Dallas, TX, USA). Pixel density of the proteins studied was calculated using Image J, version 1.41o, NIH (Bethesda, MD, USA). The values obtained were first normalized to loading control β-actin and the fold change was measured by normalizing to that of the control (0 h) value. At least two independent experiments were performed.

For COc1ccc(-c2cc(-c3ccc(OC)c(OC)c3)c(C#N)c(OCC(=O)NNC(=O)c3ccccc3)n2)cc1OC [Compound 9a, N'-[2-(3-cyano-4,6-bis(3,4-dimethoxyphenyl)pyridin-2-yloxy)acetyl]benzohydrazide], the “percent of G1 population” value (MCF-7 cells [1]) was 54%, the “expression of CDK2” value (MCF-7 cells [2]; 2 μM, 24 h) was “decreased” and the “expression of CDK4” value (MCF-7 cells [2]; 2 μM, 24 h) was “decreased”. For the same molecule, the “expression of MMP-9” value (MCF-7 cells [2]; 2 μM, 24 h) was “significantly inhibited”, the “expression of VEGF” value (MCF-7 cells [2]; 2 μM, 24 h) was “significantly inhibited” and the “expression of caspase-3” value (MCF-7 cells [2]; 2 μM, 24 h) was “up-regulated”. For the same molecule, the “expression of p27” value (MCF-7 cells [2]; 2 μM, 24 h) was “increased”, the “level of Akt” value (MCF-7 cells [2]; 2 μM, 24 h) was “decreased” and the “level of Bcl-2 protein” value (MCF-7 cells [2]; 2 μM, 24 h) was “decreased”. For the same molecule, the “level of MDM2” value (MCF-7 cells [2]; 2 μM, 24 h) was “decreased”, the “level of procaspase 3” value (MCF-7 cells [2]; 2 μM, 24 h) was “decreased” and the “expression of cytochrome c in cytoplasm” value (MCF-7 cells [2]; 2 μM, 24 h, cytosol fraction) was “increased”. For the same molecule, the “expression of cytochrome c in mitochondria” value (MCF-7 cells [2]; 2 μM, 24 h, mitochondrial fraction) was “reduced”, the “level of Bax” value (MCF-7 cells [2]; 2 μM, 24 h, vs untreated cells) was “increased” and the “level of p21” value (MCF-7 cells [2]; 2 μM, 24 h, vs untreated cells) was “increased”. The “level of p53” value (MCF-7 cells [2]; 2 μM, 24 h, vs untreated cells) was “increased”, the “expression of phospho AKT” value (MCF-7 cells [2]; 0.5, 1 and 2 μM, 24 h) was “reduced the expression of phospho AKT and β-catenin in dose-dependent manner” and the “expression of β-catenin” value (MCF-7 cells [2]; 0.5, 1 and 2 μM, 24 h) was “reduced the expression of phospho AKT and β-catenin in dose-dependent manner”. For the same molecule, the “expression of FAS” value (MCF-7 cells [2]; treated vs untreated) was “no significant change”, the “expression of caspase-8” value (MCF-7 cells [2]; treated vs untreated) was “no significant change” and the “expression of procaspase-8” value (MCF-7 cells [2]; treated vs untreated) was “no significant change”.
